From ChEMBL document CHEMBL1743201, “Casarett and Doull's Toxicology The Basic Science of Poisons, 7th edition” (2008)
One block for each compound: values may come before it.

How the values were obtained:
Assay type in all cases: ADME
[1] = target: T1, Glutathione S-transferase A4 (Homo sapiens, UniProt O15217); test: Substrates for human cytosolic glutathione transferase GSTA4
T1 sequence (O15217 whole entry): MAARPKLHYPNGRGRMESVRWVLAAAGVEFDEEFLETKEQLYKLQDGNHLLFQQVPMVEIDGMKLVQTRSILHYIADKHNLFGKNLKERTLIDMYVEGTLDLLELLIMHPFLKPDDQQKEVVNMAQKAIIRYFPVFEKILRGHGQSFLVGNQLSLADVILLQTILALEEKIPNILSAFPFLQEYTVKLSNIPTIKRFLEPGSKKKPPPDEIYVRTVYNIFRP

[2] = target: T2, Glutathione S-transferase kappa 1 (Homo sapiens, UniProt Q9Y2Q3); test: Substrates for human mitochondrial glutathione transferase GSTK1
T2 sequence (Q9Y2Q3 whole entry): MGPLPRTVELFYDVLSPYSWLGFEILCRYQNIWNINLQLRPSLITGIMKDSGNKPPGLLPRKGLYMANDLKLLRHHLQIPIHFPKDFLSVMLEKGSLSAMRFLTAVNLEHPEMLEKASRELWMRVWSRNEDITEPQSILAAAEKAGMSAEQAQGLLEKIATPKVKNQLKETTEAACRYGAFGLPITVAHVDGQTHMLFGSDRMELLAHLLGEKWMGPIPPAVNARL

[3] = target: T3, UDP-glucuronosyltransferase 2B4 (Homo sapiens, UniProt P06133); test: Substrate of human UDP-glucuronosyltransferase UGT2B4
T3 sequence (P06133 whole entry): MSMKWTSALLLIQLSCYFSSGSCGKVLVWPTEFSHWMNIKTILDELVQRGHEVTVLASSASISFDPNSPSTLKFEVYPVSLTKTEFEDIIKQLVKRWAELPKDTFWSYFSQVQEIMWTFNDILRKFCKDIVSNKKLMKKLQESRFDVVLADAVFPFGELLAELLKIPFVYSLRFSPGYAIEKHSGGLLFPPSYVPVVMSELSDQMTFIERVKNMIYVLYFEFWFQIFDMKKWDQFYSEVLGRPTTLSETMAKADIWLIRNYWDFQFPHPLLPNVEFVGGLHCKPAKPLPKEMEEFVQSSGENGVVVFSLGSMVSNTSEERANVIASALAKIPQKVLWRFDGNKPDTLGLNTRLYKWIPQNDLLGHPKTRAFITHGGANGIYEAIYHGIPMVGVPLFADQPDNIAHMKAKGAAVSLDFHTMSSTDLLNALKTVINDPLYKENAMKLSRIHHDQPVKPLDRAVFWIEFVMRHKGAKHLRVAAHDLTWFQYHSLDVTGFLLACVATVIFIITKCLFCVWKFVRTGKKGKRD

[4] = target: T4, UDP-glucuronosyltransferase 2B15 (Homo sapiens, UniProt P54855); test: Substrate of human UDP-glucuronosyltransferase UGT2B15
T4 sequence (P54855 whole entry): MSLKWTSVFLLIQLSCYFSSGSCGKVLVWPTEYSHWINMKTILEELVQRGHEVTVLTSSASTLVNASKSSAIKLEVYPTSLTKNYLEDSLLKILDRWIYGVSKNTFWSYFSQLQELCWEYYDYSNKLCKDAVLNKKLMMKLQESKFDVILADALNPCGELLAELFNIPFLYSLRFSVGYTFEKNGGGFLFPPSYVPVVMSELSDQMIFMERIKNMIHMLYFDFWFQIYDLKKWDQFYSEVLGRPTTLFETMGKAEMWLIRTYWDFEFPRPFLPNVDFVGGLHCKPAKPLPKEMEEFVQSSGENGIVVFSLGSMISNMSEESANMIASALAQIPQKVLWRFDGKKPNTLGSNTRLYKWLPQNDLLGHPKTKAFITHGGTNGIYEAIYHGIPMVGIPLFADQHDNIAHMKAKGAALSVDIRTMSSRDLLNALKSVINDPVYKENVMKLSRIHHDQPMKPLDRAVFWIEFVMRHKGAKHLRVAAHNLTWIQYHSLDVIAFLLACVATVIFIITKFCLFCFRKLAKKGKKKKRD

[5] = target: T5, UDP-glucuronosyltransferase 2B17 (Homo sapiens, UniProt O75795); test: Substrate of human UDP-glucuronosyltransferase UGT2B17
T5 sequence (O75795 whole entry): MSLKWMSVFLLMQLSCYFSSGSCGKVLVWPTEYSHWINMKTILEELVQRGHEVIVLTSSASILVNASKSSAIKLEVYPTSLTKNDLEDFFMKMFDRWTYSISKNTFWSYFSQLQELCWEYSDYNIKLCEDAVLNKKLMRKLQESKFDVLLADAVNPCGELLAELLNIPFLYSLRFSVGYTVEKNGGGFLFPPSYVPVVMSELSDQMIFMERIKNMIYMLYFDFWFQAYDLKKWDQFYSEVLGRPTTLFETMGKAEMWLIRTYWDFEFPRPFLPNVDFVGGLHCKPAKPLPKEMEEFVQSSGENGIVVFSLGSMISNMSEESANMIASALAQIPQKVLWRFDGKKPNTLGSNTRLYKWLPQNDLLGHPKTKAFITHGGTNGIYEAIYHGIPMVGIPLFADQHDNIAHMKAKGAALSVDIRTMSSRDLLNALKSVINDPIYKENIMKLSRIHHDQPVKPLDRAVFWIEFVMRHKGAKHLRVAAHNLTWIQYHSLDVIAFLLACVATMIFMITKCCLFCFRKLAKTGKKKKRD

[6] = target: T6, Maleylacetoacetate isomerase (Homo sapiens, UniProt O43708); test: Substrates for human cytosolic glutathione transferase GSTZ1
T6 sequence (O43708 whole entry): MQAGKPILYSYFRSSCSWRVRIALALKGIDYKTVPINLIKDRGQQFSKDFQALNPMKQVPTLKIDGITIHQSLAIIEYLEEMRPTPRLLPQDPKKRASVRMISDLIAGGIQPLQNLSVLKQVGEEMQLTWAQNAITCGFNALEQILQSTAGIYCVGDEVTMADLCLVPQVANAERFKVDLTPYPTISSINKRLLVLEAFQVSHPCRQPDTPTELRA

Cytochrome P450 2C8 [7] = target: T7, Cytochrome P450 2C8 (Homo sapiens, UniProt P10632); test: Clinically relevant substrates of human liver microsomal P450 enzymes, isoform CYP2C8; conditions: microsomes
T7 sequence (P10632 whole entry): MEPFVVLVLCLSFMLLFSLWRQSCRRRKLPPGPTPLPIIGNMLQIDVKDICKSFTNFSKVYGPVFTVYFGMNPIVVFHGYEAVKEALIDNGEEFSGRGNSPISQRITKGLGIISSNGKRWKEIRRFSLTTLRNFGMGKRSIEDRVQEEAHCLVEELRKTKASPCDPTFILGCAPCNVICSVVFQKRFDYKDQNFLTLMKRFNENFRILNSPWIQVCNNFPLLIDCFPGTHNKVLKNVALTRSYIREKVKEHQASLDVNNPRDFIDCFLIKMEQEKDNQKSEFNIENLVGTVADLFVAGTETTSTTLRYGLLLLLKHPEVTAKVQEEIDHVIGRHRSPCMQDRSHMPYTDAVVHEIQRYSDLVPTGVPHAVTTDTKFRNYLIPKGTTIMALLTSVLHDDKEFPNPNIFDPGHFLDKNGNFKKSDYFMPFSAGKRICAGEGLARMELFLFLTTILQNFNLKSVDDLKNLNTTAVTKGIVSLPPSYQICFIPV

[8] = target: T8, UDP-glucuronosyltransferase 2B7 (Homo sapiens, UniProt P16662); test: Substrate of human UDP-glucuronosyltransferase UGT2B7
T8 sequence (P16662 whole entry): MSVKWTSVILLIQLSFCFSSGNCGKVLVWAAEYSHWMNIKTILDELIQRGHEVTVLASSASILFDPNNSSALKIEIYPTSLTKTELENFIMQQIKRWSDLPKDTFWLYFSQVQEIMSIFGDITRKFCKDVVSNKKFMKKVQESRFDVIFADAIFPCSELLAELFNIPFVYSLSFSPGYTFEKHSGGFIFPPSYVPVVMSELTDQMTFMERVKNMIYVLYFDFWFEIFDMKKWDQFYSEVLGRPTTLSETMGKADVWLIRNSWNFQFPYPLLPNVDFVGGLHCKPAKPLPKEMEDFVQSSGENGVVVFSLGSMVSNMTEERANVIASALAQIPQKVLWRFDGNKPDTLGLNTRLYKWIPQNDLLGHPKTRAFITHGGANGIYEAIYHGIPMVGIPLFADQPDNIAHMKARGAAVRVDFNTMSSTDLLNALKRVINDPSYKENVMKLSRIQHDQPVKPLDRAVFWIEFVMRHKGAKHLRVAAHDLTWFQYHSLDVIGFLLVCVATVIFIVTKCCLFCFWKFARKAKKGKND

[9] = target: T9, UDP-glucuronosyltransferase 1A1 (Homo sapiens, UniProt P22309); test: Substrate of human UDP-glucuronosyltransferase UGT1A1
T9 sequence (P22309 whole entry): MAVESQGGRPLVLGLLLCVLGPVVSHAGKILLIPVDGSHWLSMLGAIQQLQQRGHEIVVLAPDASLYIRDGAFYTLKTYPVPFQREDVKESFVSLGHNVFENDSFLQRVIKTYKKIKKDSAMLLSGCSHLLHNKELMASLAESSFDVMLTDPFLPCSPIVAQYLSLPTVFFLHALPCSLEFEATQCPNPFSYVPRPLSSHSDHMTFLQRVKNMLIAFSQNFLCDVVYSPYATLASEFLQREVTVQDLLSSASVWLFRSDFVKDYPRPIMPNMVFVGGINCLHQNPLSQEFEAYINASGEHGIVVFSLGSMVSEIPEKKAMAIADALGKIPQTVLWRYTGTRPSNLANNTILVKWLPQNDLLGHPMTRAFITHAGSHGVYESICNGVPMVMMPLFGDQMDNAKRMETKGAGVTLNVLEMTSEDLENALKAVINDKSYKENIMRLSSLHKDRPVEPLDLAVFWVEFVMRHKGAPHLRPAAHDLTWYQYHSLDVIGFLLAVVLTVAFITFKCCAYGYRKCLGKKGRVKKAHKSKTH

[10] = target: Glutathione S-transferase P (Homo sapiens, UniProt P09211); test: Substrates for human cytosolic glutathione transferase GSTP1
[11] = target: T10, Glutathione S-transferase Mu 2 (Homo sapiens, UniProt P28161); test: Substrates for human cytosolic glutathione transferase GSTM2
T10 sequence (P28161 whole entry): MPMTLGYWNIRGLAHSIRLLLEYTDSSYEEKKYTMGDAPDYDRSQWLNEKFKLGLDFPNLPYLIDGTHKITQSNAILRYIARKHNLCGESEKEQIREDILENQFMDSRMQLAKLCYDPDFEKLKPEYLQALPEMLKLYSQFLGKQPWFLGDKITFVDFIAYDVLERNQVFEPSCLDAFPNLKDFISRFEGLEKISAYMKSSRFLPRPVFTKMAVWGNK

[12] = target: T11, UDP-glucuronosyltransferase 1A9 (Homo sapiens, UniProt O60656); test: Substrate of human UDP-glucuronosyltransferase UGT1A9
T11 sequence (O60656 whole entry): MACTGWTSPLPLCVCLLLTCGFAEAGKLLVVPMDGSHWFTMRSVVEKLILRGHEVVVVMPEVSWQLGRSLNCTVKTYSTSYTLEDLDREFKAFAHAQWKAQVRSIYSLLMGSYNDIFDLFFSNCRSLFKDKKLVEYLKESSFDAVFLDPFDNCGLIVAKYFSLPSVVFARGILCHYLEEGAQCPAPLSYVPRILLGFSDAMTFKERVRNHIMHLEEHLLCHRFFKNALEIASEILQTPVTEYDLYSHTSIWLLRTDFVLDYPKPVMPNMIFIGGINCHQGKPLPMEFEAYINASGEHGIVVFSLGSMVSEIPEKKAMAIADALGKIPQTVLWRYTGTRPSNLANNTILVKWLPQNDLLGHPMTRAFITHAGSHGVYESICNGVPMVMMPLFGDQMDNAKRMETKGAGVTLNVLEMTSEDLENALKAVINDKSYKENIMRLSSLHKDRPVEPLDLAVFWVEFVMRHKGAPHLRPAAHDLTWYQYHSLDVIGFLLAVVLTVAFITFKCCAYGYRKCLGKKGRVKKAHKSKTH

Cytochrome P450 2C8 [13] = target: T7, Cytochrome P450 2C8; test: Clinically relevant inhibitors of human liver microsomal P450 enzymes, isoform CYP2C8; conditions: microsomes

Glutathione S-transferase P, sequence (P09211 whole entry): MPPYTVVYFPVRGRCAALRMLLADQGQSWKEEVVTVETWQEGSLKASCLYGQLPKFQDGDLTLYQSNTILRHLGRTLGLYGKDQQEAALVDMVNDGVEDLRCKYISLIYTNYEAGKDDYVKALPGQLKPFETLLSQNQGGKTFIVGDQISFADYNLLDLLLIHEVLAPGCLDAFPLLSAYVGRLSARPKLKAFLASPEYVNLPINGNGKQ

SMILES: C=C(CC)C(=O)c1ccc(OCC(=O)O)c(Cl)c1Cl [ETHACRYNIC ACID]
Activity [1]: Substrate

SMILES: CCCCC/C=C\C/C=C\C/C=C\C=C\CCCCC(=O)O
Activity [2]: Substrate

SMILES: C[C@]12CC[C@@H]3c4ccc(O)cc4CC[C@H]3[C@@H]1C[C@@H](O)[C@@H]2O [ESTRIOL]
Activity [3]: Substrate
Activity [4]: Substrate

SMILES: O=c1c(O)c(-c2ccccc2)oc2cc(O)cc(O)c12 [GALANGIN]
Activity [5]: Substrate

SMILES: O=C(O)CF [FLUOROACETATE]
Activity [6]: Substrate

SMILES: CCCCCCC(O)/C=C/C=O (configuration not stated)
Activity [1]: Substrate

SMILES: CC(Cl)C(=O)O (configuration not stated)
Activity [6]: Substrate

SMILES: CCCCCC(O)/C=C/C=O (configuration not stated) [4-HYDROXYNON-2-ENAL]
Activity [1]: Substrate

SMILES: COCc1c(C(C)C)nc(C(C)C)c(/C=C/[C@@H](O)C[C@@H](O)CC(=O)O)c1-c1ccc(F)cc1 [CERIVASTATIN]
Activity (Cytochrome P450 2C8 [7]): Substrate

SMILES: C=CCc1ccc(O)c(OC)c1 [EUGENOL]
Activity [5]: Substrate

SMILES: O=C(O)C(Cl)Cl [DICHLOROACETIC ACID]
Activity [6]: Substrate

SMILES: COc1ccccc1OCCNCC(O)COc1cccc2[nH]c3ccccc3c12 (configuration not stated) [CARVEDILOL]
Activity [8]: Substrate
Activity [9]: Substrate
Activity [3]: Substrate

SMILES: C/C=C/C(=O)OCC1=CCCCC1=O
Activity [10]: Substrate
Activity [11]: Substrate
Activity [1]: Substrate

SMILES: CCCCC[C@@H](/C=C/C=C\C/C=C\C/C=C\CCCC(=O)O)OO
Activity [2]: Substrate

Continued, values first:

Activity [6]: Substrate
SMILES: O=C(O)/C=C\C(=O)CC(=O)CC(=O)O [MALEYLACETOACETATE]

Activity [3]: Substrate
SMILES: C[C@H](CCC(=O)O)[C@H]1CC[C@H]2[C@@H]3C[C@H](O)[C@@H]4C[C@H](O)CC[C@]4(C)[C@H]3CC[C@]12C [HYODEOXYCHOLIC_ACID]

Activity (Cytochrome P450 2C8 [7]): Substrate
SMILES: CC(=O)O[C@H]1C(=O)[C@@]2(C)[C@H]([C@H](OC(=O)c3ccccc3)[C@]3(O)C[C@H](OC(=O)[C@H](O)[C@@H](NC(=O)c4ccccc4)c4ccccc4)C(C)=C1C3(C)C)[C@]1(OC(C)=O)CO[C@@H]1C[C@@H]2O [PACLITAXEL]

Activity [5]: Substrate
Activity [12]: Substrate
SMILES: COc1cc2ccc(=O)oc2cc1O [SCOPOLETIN]

Activity (Cytochrome P450 2C8 [7]): Substrate
SMILES: CCOc1cc(CC(=O)N[C@@H](CC(C)C)c2ccccc2N2CCCCC2)ccc1C(=O)O [REPAGLINIDE]

Activity (Cytochrome P450 2C8 [13]): Inhibitor
Activity (Cytochrome P450 2C8 [7]): Substrate
SMILES: CN(CCOc1ccc(CC2SC(=O)NC2=O)cc1)c1ccccn1 (configuration not stated) [ROSIGLITAZONE]
